Paper PMC2952919, “Error-Prone Translesion DNA Synthesis by Escherichia coli DNA Polymerase IV (DinB) on Templates Containing 1,2-dihydro-2-oxoadenine” (Journal of Nucleic Acids, 2010)

Target: T1, Pol IV (DinB; HT-dinB) (Escherichia coli, UniProt Q47155)
T1 construct: full-length DinB with His tag (plasmid pET16B-DinB), expressed in E. coli BL21(DE3)/pLysS; tag kept
T1 sequence (Q47155 1-351): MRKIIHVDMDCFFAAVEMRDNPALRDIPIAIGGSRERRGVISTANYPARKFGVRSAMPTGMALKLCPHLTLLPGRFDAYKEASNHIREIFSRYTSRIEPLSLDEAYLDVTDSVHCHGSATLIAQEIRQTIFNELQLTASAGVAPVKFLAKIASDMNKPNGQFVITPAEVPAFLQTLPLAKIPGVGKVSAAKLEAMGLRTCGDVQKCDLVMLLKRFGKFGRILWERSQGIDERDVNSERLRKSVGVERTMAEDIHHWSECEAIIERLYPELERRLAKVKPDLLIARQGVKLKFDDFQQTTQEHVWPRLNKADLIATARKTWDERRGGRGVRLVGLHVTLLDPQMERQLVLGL
Assay: primer extension, […]-labelled primer, gel imaging
Type: biochemical
Details: insertion opposite 2-oxodA (primer 3/template 2, 50 fmol in 10 μl); Pol IV 50 nM; 20°C, 60 min; pH 7.4, 7.5 mM MgCl2; dNTP 0.02~500 μM; printed Km unit is implausible (a rate unit)

| SMILES | Km [fmol/mL/min] |
| --- | --- |
| Cc1cn([C@H]2C[C@H](O)[C@@H](COP(=O)(O)OP(=O)(O)OP(=O)(O)O)O2)c(=O)[nH]c1=O [dTTP] | 25.6 |
| Nc1ccn([C@H]2C[C@H](O)[C@@H](COP(=O)(O)OP(=O)(O)OP(=O)(O)O)O2)c(=O)n1 [dCTP] | 8.5 |
